Key:
xenograft models = assay: xenograft models, efficacy; type: in vivo; settings: fulvestrant dosed according to a clinically relevant dosing scheme
Text: (§1) Furthermore, the lower plasma protein binding of GDC-9545 provides higher free concentration of GDC-9545 than fulvestrant.

[1] = system: ER+ metastatic breast cancer; settings: frontline patients, NCT01602380; cited from earlier work
[2] = human steady-state total drug exposure, GDC-9545 versus fulvestrant; type: in vivo; settings: GDC-9545 30 mg QD versus fulvestrant 500 mg IM monthly
Text: as §1

[3] = plasma protein binding and free concentration, GDC-9545 versus fulvestrant; type: in vitro ADME
Text: as §1

wild-type ER = molecular target: T1, wild-type ER (Homo sapiens, UniProt P03372); assay: in vitro cell and biochemical assays, wild-type context
T1 sequence (P03372 1-595): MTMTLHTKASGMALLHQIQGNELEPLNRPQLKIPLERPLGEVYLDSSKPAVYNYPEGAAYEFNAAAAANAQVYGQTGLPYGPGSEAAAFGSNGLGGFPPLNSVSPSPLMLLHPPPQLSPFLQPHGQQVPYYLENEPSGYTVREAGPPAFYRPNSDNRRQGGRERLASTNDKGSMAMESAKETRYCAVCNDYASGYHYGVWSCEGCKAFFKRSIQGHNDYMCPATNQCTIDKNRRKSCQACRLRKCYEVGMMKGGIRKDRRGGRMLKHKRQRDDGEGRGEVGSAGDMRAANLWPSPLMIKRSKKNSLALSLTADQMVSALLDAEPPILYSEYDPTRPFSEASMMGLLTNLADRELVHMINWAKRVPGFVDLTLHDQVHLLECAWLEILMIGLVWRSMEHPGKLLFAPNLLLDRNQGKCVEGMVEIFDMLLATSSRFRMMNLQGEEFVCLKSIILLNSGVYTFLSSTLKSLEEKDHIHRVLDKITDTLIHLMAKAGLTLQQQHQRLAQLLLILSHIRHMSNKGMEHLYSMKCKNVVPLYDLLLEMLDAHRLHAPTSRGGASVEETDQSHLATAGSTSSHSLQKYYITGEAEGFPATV
Text: as §1

ESR1-mutant = assay: in vitro cell and biochemical assays, ESR1-mutant context
Text: as §1

CDK4 = CDK4 (Homo sapiens, UniProt P11802); settings: cited from earlier work
Sequence of CDK4 (P11802 whole entry): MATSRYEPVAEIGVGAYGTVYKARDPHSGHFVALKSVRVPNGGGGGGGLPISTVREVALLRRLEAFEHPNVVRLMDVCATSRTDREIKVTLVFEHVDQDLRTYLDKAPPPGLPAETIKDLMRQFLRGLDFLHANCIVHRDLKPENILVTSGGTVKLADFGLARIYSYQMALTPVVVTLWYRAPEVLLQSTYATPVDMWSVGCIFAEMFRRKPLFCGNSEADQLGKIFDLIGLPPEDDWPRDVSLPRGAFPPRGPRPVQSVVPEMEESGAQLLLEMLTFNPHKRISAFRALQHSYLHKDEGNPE
Sequence of CDK4 (P24385 whole entry partner): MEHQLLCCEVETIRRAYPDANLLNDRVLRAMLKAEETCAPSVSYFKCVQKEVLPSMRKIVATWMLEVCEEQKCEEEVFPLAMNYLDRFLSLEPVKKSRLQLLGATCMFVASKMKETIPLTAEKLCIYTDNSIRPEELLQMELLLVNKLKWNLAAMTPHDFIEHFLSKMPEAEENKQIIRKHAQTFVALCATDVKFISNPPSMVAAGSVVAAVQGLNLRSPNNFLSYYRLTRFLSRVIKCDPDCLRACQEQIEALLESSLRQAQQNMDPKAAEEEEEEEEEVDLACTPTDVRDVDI

[4] = system: endocrine-resistant tumors; settings: cited from earlier work

C[C@]12CC[C@@H]3c4ccc(O)cc4C[C@@H](CCCCCCCCC[S+]([O-])CCCC(F)(F)C(F)(F)F)[C@H]3[C@@H]1CC[C@@H]2O (stereo partly drawn) [Fulvestrant]
efficacy in xenograft models compared with GDC-9545 (xenograft models): less efficacious | clinical benefit versus anastrozole [1]: benefit over anastrozole

C[C@@H]1Cc2c([nH]c3ccccc23)[C@@H](c2c(F)cc(NC3CN(CCCF)C3)cc2F)N1CC(F)(F)CO [GDC-9545, 3-((1R,3R)-1-(2,6-difluoro-4-((1-(3-fluoropropyl)azetidin-3-yl)amino)phenyl)-3-methyl-1,3,4,9-tetrahydro-2H-pyrido[3,4-b]indol-2-yl)-2,2-difluoropropan-1-ol]
steady-state total drug exposure relative to fulvestrant [2]: approximately 10 fold | free concentration compared with fulvestrant [3]: higher | plasma protein binding compared with fulvestrant [3]: lower | potency relative to fulvestrant (wild-type ER): up to 10 times | potency relative to fulvestrant (ESR1-mutant): up to 10 times

(2-Pyrimidinamine, N-[5-[(4-ethyl-1-piperazinyl)methyl]-2-pyridinyl]-5-fluoro-4-[4-fluoro-2-methyl-1-(1-methylethyl)-1H-benzimidazol-6-yl] [abemaciclib]
selectivity CDK4 versus CDK6 (CDK4): more selective for CDK4 than CDK6 | single-agent activity [4]: single-agent activity
